Laboratory results as given in PubChem BioAssay (NCI).
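A five-concentration, 48-hour dose response in 96-well plates underlies each endpoint, interpolated linearly between surrounding concentrations. Here, GI50 denotes the concentration required for 50% inhibition of growth. TGI is the concentration that stops growth completely.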

What was measured:
Assay in all cases: DTP human tumour cell line panel, 48 h
IGROV1 ovarian = tested on: IGROV1 ovarian
MDA-MB-231 breast = tested on: MDA-MB-231 breast
U251 CNS = tested on: U251 CNS
HCT-116 colon = tested on: HCT-116 colon
EKVX NSCLC = tested on: EKVX NSCLC
SW-620 colon = tested on: SW-620 colon
MALME-3M melanoma = tested on: MALME-3M melanoma
LOX IMVI melanoma = tested on: LOX IMVI melanoma
BT-549 breast = tested on: BT-549 breast
SK-OV-3 ovarian = tested on: SK-OV-3 ovarian
A498 renal = tested on: A498 renal
OVCAR-5 ovarian = tested on: OVCAR-5 ovarian
K-562 leukemia = tested on: K-562 leukemia
M14 melanoma = tested on: M14 melanoma
SK-MEL-28 melanoma = tested on: SK-MEL-28 melanoma
HT29 colon = tested on: HT29 colon
PC-3 prostate = tested on: PC-3 prostate
SF-268 CNS = tested on: SF-268 CNS
NCI-H460 lung = tested on: NCI-H460 lung
TK-10 renal = tested on: TK-10 renal
RPMI-8226 leukemia = tested on: RPMI-8226 leukemia
SK-MEL-5 melanoma = tested on: SK-MEL-5 melanoma
HCT-15 colon = tested on: HCT-15 colon
SNB-19 CNS = tested on: SNB-19 CNS
NCI/ADR-RES ovarian = tested on: NCI/ADR-RES ovarian
SR leukemia = tested on: SR leukemia
HCC-2998 colon = tested on: HCC-2998 colon
ACHN renal = tested on: ACHN renal
SK-MEL-2 melanoma = tested on: SK-MEL-2 melanoma
CCRF-CEM leukemia = tested on: CCRF-CEM leukemia
T-47D breast = tested on: T-47D breast
UO-31 renal = tested on: UO-31 renal
HOP-92 NSCLC = tested on: HOP-92 NSCLC
MOLT-4 leukemia = tested on: MOLT-4 leukemia
NCI-H226 lung = tested on: NCI-H226 lung
HS 578T breast = tested on: HS 578T breast
786-0 renal = tested on: 786-0 renal
MDA-MB-435 = tested on: MDA-MB-435
OVCAR-8 ovarian = tested on: OVCAR-8 ovarian
SF-295 CNS = tested on: SF-295 CNS
OVCAR-3 ovarian = tested on: OVCAR-3 ovarian
HL-60(TB) leukemia = tested on: HL-60(TB) leukemia
SN12C renal = tested on: SN12C renal
RXF 393 renal = tested on: RXF 393 renal
NCI-H522 lung = tested on: NCI-H522 lung
SF-539 CNS = tested on: SF-539 CNS
MCF7 breast = tested on: MCF7 breast
SNB-75 CNS = tested on: SNB-75 CNS
UACC-257 melanoma = tested on: UACC-257 melanoma
HOP-62 NSCLC = tested on: HOP-62 NSCLC
UACC-62 melanoma = tested on: UACC-62 melanoma
KM12 colon = tested on: KM12 colon
A549 NSCLC = tested on: A549 NSCLC
CAKI-1 renal = tested on: CAKI-1 renal
NCI-H23 lung = tested on: NCI-H23 lung
DU-145 prostate = tested on: DU-145 prostate

For `C=C1CCC2C3(C)COC(c4ccc(Cl)cc4)OC3CCC2(C)C1/C=C/C1=CCOC1=O` (stereo unspecified), the GI50 (IGROV1 ovarian) was 50 µM, the TGI (IGROV1 ovarian) was > 100 µM and the GI50 (MDA-MB-231 breast) was 6.68 µM. For the same molecule, the TGI (MDA-MB-231 breast) was > 100 µM, the GI50 (U251 CNS) was 5.68 µM and the TGI (U251 CNS) was 46.2 µM. The GI50 (HCT-116 colon) was 2.54 µM, the TGI (HCT-116 colon) was > 100 µM and the GI50 (EKVX NSCLC) was 0.751 µM. The TGI (EKVX NSCLC) was 29.8 µM, the GI50 (SW-620 colon) was > 100 µM and the TGI (SW-620 colon) was > 100 µM. For the same molecule, the GI50 (MALME-3M melanoma) was 11.3 µM, the TGI (MALME-3M melanoma) was 71.4 µM and the GI50 (LOX IMVI melanoma) was 0.985 µM. It also gave a TGI (LOX IMVI melanoma) of 17.6 µM, a GI50 (BT-549 breast) of 4.79 µM and a TGI (BT-549 breast) of 80.5 µM. It also gave a GI50 (SK-OV-3 ovarian) of 16.7 µM, a TGI (SK-OV-3 ovarian) of 74.5 µM and a GI50 (A498 renal) of 2.18 µM. For the same molecule, the TGI (A498 renal) was 31.5 µM, the GI50 (OVCAR-5 ovarian) was 70.2 µM and the TGI (OVCAR-5 ovarian) was > 100 µM. The TGI (K-562 leukemia) was > 100 µM, the GI50 (M14 melanoma) was 27.2 µM and the TGI (M14 melanoma) was > 100 µM. The GI50 (SK-MEL-28 melanoma) was 21.7 µM, the TGI (SK-MEL-28 melanoma) was > 100 µM and the GI50 (HT29 colon) was 5.52 µM. For the same molecule, the TGI (HT29 colon) was > 100 µM, the GI50 (PC-3 prostate) was 1.67 µM and the TGI (PC-3 prostate) was 69.9 µM. The GI50 (SF-268 CNS) was 19.9 µM, the TGI (SF-268 CNS) was > 100 µM and the GI50 (NCI-H460 lung) was 4.42 µM. For the same molecule, the TGI (NCI-H460 lung) was > 100 µM, the GI50 (TK-10 renal) was 14.4 µM and the TGI (TK-10 renal) was > 100 µM. For the same molecule, the GI50 (RPMI-8226 leukemia) was 0.602 µM, the TGI (RPMI-8226 leukemia) was > 100 µM and the GI50 (SK-MEL-5 melanoma) was 1.88 µM. For the same molecule, the TGI (SK-MEL-5 melanoma) was 31.1 µM, the GI50 (HCT-15 colon) was 4.79 µM and the TGI (HCT-15 colon) was > 100 µM. It also gave a GI50 (SNB-19 CNS) of 15.9 µM, a TGI (SNB-19 CNS) of 88.4 µM and a GI50 (NCI/ADR-RES ovarian) of 4.98 µM. For the same molecule, the TGI (NCI/ADR-RES ovarian) was > 100 µM, the GI50 (SR leukemia) was 1.37 µM and the TGI (SR leukemia) was > 100 µM. For the same molecule, the GI50 (HCC-2998 colon) was 6.73 µM, the TGI (HCC-2998 colon) was > 100 µM and the GI50 (ACHN renal) was 12.1 µM. For the same molecule, the TGI (ACHN renal) was 50.9 µM, the GI50 (SK-MEL-2 melanoma) was 17.9 µM and the TGI (SK-MEL-2 melanoma) was > 100 µM. It also gave a GI50 (CCRF-CEM leukemia) of 1.56 µM, a TGI (CCRF-CEM leukemia) of 12.6 µM and a GI50 (T-47D breast) of 0.821 µM. The TGI (T-47D breast) was 21.4 µM, the GI50 (UO-31 renal) was > 100 µM and the TGI (UO-31 renal) was > 100 µM. For the same molecule, the GI50 (HOP-92 NSCLC) was 9.96 µM, the TGI (HOP-92 NSCLC) was 39.1 µM and the GI50 (MOLT-4 leukemia) was 4.5 µM. For the same molecule, the TGI (MOLT-4 leukemia) was > 100 µM, the GI50 (NCI-H226 lung) was 7.06 µM and the TGI (NCI-H226 lung) was > 100 µM. It also gave a GI50 (HS 578T breast) of 11.5 µM, a TGI (HS 578T breast) of 42.5 µM and a GI50 (786-0 renal) of 29.8 µM. The TGI (786-0 renal) was > 100 µM, the GI50 (MDA-MB-435) was 4.19 µM and the TGI (MDA-MB-435) was > 100 µM. For the same molecule, the GI50 (OVCAR-8 ovarian) was 4.07 µM, the TGI (OVCAR-8 ovarian) was > 100 µM and the GI50 (SF-295 CNS) was 1.83 µM. It also gave a TGI (SF-295 CNS) of 22.5 µM, a GI50 (OVCAR-3 ovarian) of 7.52 µM and a TGI (OVCAR-3 ovarian) of 56.8 µM. For the same molecule, the GI50 (HL-60(TB) leukemia) was 17 µM, the TGI (HL-60(TB) leukemia) was > 100 µM and the GI50 (SN12C renal) was 7.56 µM. For the same molecule, the TGI (SN12C renal) was > 100 µM, the GI50 (RXF 393 renal) was 12 µM and the TGI (RXF 393 renal) was 58.2 µM. For the same molecule, the GI50 (NCI-H522 lung) was 1.11 µM, the TGI (NCI-H522 lung) was 36.7 µM and the GI50 (SF-539 CNS) was 11.2 µM. For the same molecule, the TGI (SF-539 CNS) was > 100 µM, the GI50 (MCF7 breast) was 3.35 µM and the TGI (MCF7 breast) was > 100 µM. For the same molecule, the GI50 (SNB-75 CNS) was 12.1 µM, the TGI (SNB-75 CNS) was 41.5 µM and the GI50 (UACC-257 melanoma) was 4.63 µM. For the same molecule, the TGI (UACC-257 melanoma) was > 100 µM, the GI50 (HOP-62 NSCLC) was 26.8 µM and the TGI (HOP-62 NSCLC) was > 100 µM. For the same molecule, the GI50 (UACC-62 melanoma) was 4 µM, the TGI (UACC-62 melanoma) was > 100 µM and the GI50 (KM12 colon) was 9.19 µM. The TGI (KM12 colon) was > 100 µM, the GI50 (A549 NSCLC) was 2.37 µM and the TGI (A549 NSCLC) was 32.5 µM. The GI50 (CAKI-1 renal) was 6.87 µM, the TGI (CAKI-1 renal) was > 100 µM and the GI50 (NCI-H23 lung) was 3.19 µM. For the same molecule, the TGI (NCI-H23 lung) was > 100 µM, the GI50 (DU-145 prostate) was 24 µM and the TGI (DU-145 prostate) was > 100 µM.
